| SMILES | logP |
| --- | --- |
| N#CC(C#N)=NNc1ccc(Cl)cc1 | 3.39 |
| N#CC(C#N)=NNc1ccc(OC(F)(F)F)cc1 | 3.68 |
| N#CC(C#N)=NNc1ccc([N+](=O)[O-])cc1 | 2.37 |
| N#CC(C#N)=NNc1cccc(Cl)c1 | 3.38 |
| N#CC(C#N)=NNc1ccccc1[N+](=O)[O-] | 2.9 |

Other lines, results leading:

| logP | SMILES |
| --- | --- |
| 2.28 | N#CC(C#N)=NNc1cccc(O)c1 |
| 2.1 | CC(=O)c1ccc(NN=C(C#N)C#N)cc1 |
| 3.2 | Cc1ccc(NN=C(C#N)C#N)cc1 |
| 1.83 | CC(=O)Nc1ccc(NN=C(C#N)C#N)cc1 |
| 3.58 | N#CC(C#N)=NNc1ccc(CCCl)cc1 |

From the OPERA property sets (Mansouri et al. 2018)
